Assay results as given in patent US20250032651A1, “[177LU] LUTETIUM-PSMA I&T COMPOSITION AND DOSIMETRY, KIT, METHOD OF MAKING, AND METHOD OF USING THEREOF” (Curium US LLC, priority 2022, published 2025).
“And” between values parts separate entries of the source, which are not always exact repeats. Identical values can stand only once.

Test: Plasma PK: gamma-counted plasma radioactivity, bi-exponential fit
Format: in vivo, human
Details: plasma
Procedure: Additionally, for PK assessment, whole blood samples were collected at six timepoints (Pre-Infusion, 1 h, 4 h, 24 h, 48 h, and 168 h) and processed to extract plasma. All plasma samples were gamma counted locally for analysis of pharmacokinetics.
PK plasma samples were collected at pre-Infusion, 1 h, 4 h, 24 h, 48 h, and 168 h, and counted for radioactivity. Blood samples were first centrifuged to extract plasma, and then the radioactivity in plasma was counted in a gamma counter.
Whole blood samples were collected as detailed in the protocol Schedule of Events i.e. pre-injection, and then at 1 h, 4 h, 24 h, 48 h, and 168 h post-injection. The samples were first centrifuged to separate plasma, and the radioactivity in the plasma was then measured using a gamma counter. Plasma concentrations were subsequently fitted with a bi-exponential function to derive outcome parameters such as the half-life and clearance rate of the radiopharmaceutical in the plasma.

[1] = Cycle 3, individual patient values

In the case of `O=C([O-])CC[C@H](NC(=O)N[C@@H](CCCCNC(=O)CCCCCCC(=O)NCCCC[C@@H](NC(=O)[C@@H](Cc1ccccc1)NC(=O)[C@@H](Cc1ccc(O)c(I)c1)NC(=O)CC[C@H](C(=O)[O-])N1CCN(CC(=O)[O-])CCN(CC(=O)[O-])CCN(CC(=O)[O-])CC1)C(=O)[O-])C(=O)[O-])C(=O)[O-].[177Lu+3].[H+].[H+].[H+].[H+].[H+]` [^177Lu-PSMA I&T, (3S,7S,26R,29R,32R,37R)-29-benzyl-32-(4-hydroxy-3-iodobenzyl)-5,13,20,28,31,34-hexaoxo-37-(4,7,10-tris(carboxymethyl)-1,4,7,10-tetraazacyclododecan-1-yl)-4,6,12,21,27,30,33-heptaazaheptatriacontane-1,3,7,26,37-pentacarboxylic acid; lutetium-177 (III)], the “AUC Total” value (Cycle 1, min) is reported as 3.07 fIA/L × min, the “Clearance Rate” value (Cycle 1, min) is reported as 2.89 L/h and the “Peak Concentration Value” (Cycle 1, min) is reported as 0.01 fIA/L. The “Time of Peak Concentration” value (Cycle 1, min) was 33.00 min, the Vc (Cycle 1, min) was 9.92 L and the Vd (Cycle 1, min) was 54.60 L. For the same compound, the “AUC Total” value (Cycle 3, Mean (n=15)) was 25.58 fIA/L × min, the “Peak Concentration Value” (Cycle 3, Mean (n=15)) was 0.05 fIA/L and the “Rate Clearance” value (Cycle 3, Mean (n=15)) was 9.65 L/h. For the same compound, the Vc (Cycle 3, Mean (n=15)) was 16.40 L, the Vd (Cycle 3, Mean (n=15)) was 141.49 L and the “AUC Total” value [1] was 26.16 fIA/L x min and 29.32 fIA/L x min and 20.20 fIA/L x min (2×) and 36.74 fIA/L x min and 16.57 fIA/L x min and 19.01 fIA/L x min and 17.88 fIA/L x min and 23.21 fIA/L x min and 13.86 fIA/L x min and 24.55 fIA/L x min and 22.70 fIA/L x min and 39.62 fIA/L x min and 28.52 fIA/L x min and 36.09 fIA/L x min and 29.33 fIA/L x min. For the same compound, the “Clearance Rate” value [1] was 7.68 L/h and 6.78 L/h and 7.81 L/h and 4.95 L/h and 14.60 L/h and 18.27 L/h and 9.22 L/h and 8.52 L/h and 25.73 L/h and 11.43 L/h and 13.59 L/h and 3.34 L/h and 5.74 L/h and 3.01 L/h and 4.07 L/h, the “Distribution Half-Life” value [1] was 2.07 h and 1.69 h and 1.88 h and 2.30 h and 2.06 h and 1.64 h and 2.55 h and 2.28 h and 1.85 h and 2.11 h and 3.17 h and 2.61 h and 2.22 h and the “Elimination Half-Life” value [1] was 12.51 h and 11.70 h and 10.92 h and 9.33 h and 9.92 h and 8.16 h and 9.10 h and 9.11 h and 10.32 h and 9.75 h and 9.63 h and 10.67 h and 18.37 h and 14.16 h. The “Peak Concentration Value” [1] was 0.04 fIA/L (7×) and 0.05 fIA/L (4×) and 0.06 fIA/L (2×) and 0.07 fIA/L and 0.03 fIA/L (2×), the “Time of Peak Concentration” value [1] was 60.00 min (5×) and 68.00 min and 61.00 min (3×) and 66.00 min (2×) and 55.00 min (2×) and 65.00 min and 59.00 min (2×) and the Vc [1] was 11.98 L and 11.38 L and 21.49 L (2×) and 10.66 L and 16.42 L and 16.53 L and 24.53 L and 17.80 L and 20.07 L and 13.50 L and 14.30 L and 15.13 L and 18.12 L and 16.40 L and 17.66 L. For the same compound, the Vd [1] was 129.70 L and 106.80 L and 105.05 L and 70.92 L and 171.89 L and 239.78 L and 121.21 L and 126.73 L and 361.81 L and 158.71 L and 191.15 L and 51.46 L and 152.16 L and 61.59 L and 73.36 L, the “AUC Total” value (Cycle 3, individual patients) was 29.32 fIA/L × min and 20.20 fIA/L × min (2×) and 36.74 fIA/L × min and 16.57 fIA/L × min and 19.01 fIA/L × min and 17.88 fIA/L × min and 23.21 fIA/L × min and 13.86 fIA/L × min and 24.55 fIA/L × min and 22.70 fIA/L × min and 39.62 fIA/L × min and 28.52 fIA/L × min and 36.09 fIA/L × min and 29.33 fIA/L × min and 26.16 fIA/L × min and the “Peak Concentration Value” (Cycle 3, individual patients) was 0.06 fIA/L (2×) and 0.04 fIA/L (7×) and 0.07 fIA/L and 0.03 fIA/L (2×) and 0.05 fIA/L (4×). For the same compound, the Vc (Cycle 3, individual patients) was 11.38 L and 21.49 L (2×) and 10.66 L and 16.42 L and 16.53 L and 24.53 L and 17.80 L and 20.07 L and 13.50 L and 14.30 L and 15.13 L and 18.12 L and 16.40 L and 17.66 L and 11.98 L, the Vd (Cycle 3, individual patients) was 106.80 L and 105.05 L and 70.92 L and 171.89 L and 239.78 L and 121.21 L and 126.73 L and 361.81 L and 158.71 L and 191.15 L and 51.46 L and 152.16 L and 61.59 L and 73.36 L and 129.70 L and the “AUC Total” value (Cycle 3, max) was 39.62 fIA/L × min. For the same compound, the “Peak Concentration Value” (Cycle 3, max) was 0.07 fIA/L, the “Rate Clearance” value (Cycle 3, max) was 25.73 L/h and the Vc (Cycle 3, max) was 24.53 L. The Vd (Cycle 3, max) was 361.81 L, the “AUC Total” value (Cycle 3, median) was 24.55 fIA/L × min and the “Peak Concentration Value” (Cycle 3, median) was 0.04 fIA/L. The “Rate Clearance” value (Cycle 3, median) was 7.81 L/h, the Vc (Cycle 3, median) was 16.42 L and the Vd (Cycle 3, median) was 126.73 L. For the same compound, the “AUC Total” value (Cycle 3, min) was 13.86 fIA/L × min, the “Peak Concentration Value” (Cycle 3, min) was 0.03 fIA/L and the “Rate Clearance” value (Cycle 3, min) was 3.01 L/h. The Vc (Cycle 3, min) was 10.66 L, the Vd (Cycle 3, min) was 51.46 L and the “AUC Total, Mean” value (Cycle 3, n = 15) was 25.58 fIA/L x min. For the same compound, the “AUC Total, max” value (Cycle 3, n = 15) was 39.62 fIA/L x min, the “AUC Total, median” value (Cycle 3, n = 15) was 24.55 fIA/L x min and the “AUC Total, min” value (Cycle 3, n = 15) was 13.86 fIA/L x min. The “Clearance Rate, Mean” value (Cycle 3, n = 15) was 9.65 L/h, the “Clearance Rate, max” value (Cycle 3, n = 15) was 25.73 L/h and the “Clearance Rate, median” value (Cycle 3, n = 15) was 7.81 L/h. The “Clearance Rate, min” value (Cycle 3, n = 15) was 3.01 L/h, the “Distribution Half-Life, Mean” value (Cycle 3, n = 15) was 2.17 h and the “Distribution Half-Life, max” value (Cycle 3, n = 15) was 3.17 h. The “Distribution Half-Life, median” value (Cycle 3, n = 15) was 2.07 h, the “Distribution Half-Life, min” value (Cycle 3, n = 15) was 1.64 h and the “Elimination Half-Life, Mean” value (Cycle 3, n = 15) was 10.89 h. For the same compound, the “Elimination Half-Life, max” value (Cycle 3, n = 15) was 18.37 h, the “Elimination Half-Life, median” value (Cycle 3, n = 15) was 9.92 h and the “Elimination Half-Life, min” value (Cycle 3, n = 15) was 8.16 h. For the same compound, the “Peak Concentration Value, Mean” value (Cycle 3, n = 15) was 0.05 fIA/L, the “Peak Concentration Value, max” value (Cycle 3, n = 15) was 0.07 fIA/L and the “Peak Concentration Value, median” value (Cycle 3, n = 15) was 0.04 fIA/L. The “Peak Concentration Value, min” value (Cycle 3, n = 15) was 0.03 fIA/L, the “Time of Peak Concentration” value (Cycle 3, n = 15) was 55.00 min and the “Time of Peak Concentration, Mean” value (Cycle 3, n = 15) was 60.67 min. For the same compound, the “Time of Peak Concentration, max” value (Cycle 3, n = 15) was 68.00 min, the “Time of Peak Concentration, median” value (Cycle 3, n = 15) was 60.00 min and the “Vc, Mean” value (Cycle 3, n = 15) was 16.40 L. For the same compound, the “Vc, max” value (Cycle 3, n = 15) was 24.53 L, the “Vc, median” value (Cycle 3, n = 15) was 16.42 L and the “Vc, min” value (Cycle 3, n = 15) was 10.66 L. The “Vd, Mean” value (Cycle 3, n = 15) was 141.49 L, the “Vd, max” value (Cycle 3, n = 15) was 361.81 L and the “Vd, median” value (Cycle 3, n = 15) was 126.73 L. For the same compound, the “Vd, min” value (Cycle 3, n = 15) was 51.46 L.
